Measured values from PubChem BioAssay (NCI).
Where “and” joins values, the source holds several entries; their conditions need not be identical. Equal entries are not always repeated.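 Exposure lasted 48 hours, with cells grown in 96-well plates and compounds tested at five concentrations. Abbreviation: GI50, concentration required for 50% inhibition of growth. TGI marks complete inhibition of growth.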

Assays:
Assay in all cases: NCI anticancer screen, dose series, 48 h
OVCAR-5 ovarian = test system: OVCAR-5 ovarian
BT-549 breast = test system: BT-549 breast
U251 CNS = test system: U251 CNS
HOP-92 NSCLC = test system: HOP-92 NSCLC
RPMI-8226 leukemia = test system: RPMI-8226 leukemia
KM12 colon = test system: KM12 colon
IGROV1 ovarian = test system: IGROV1 ovarian
OVCAR-8 ovarian = test system: OVCAR-8 ovarian
A549 NSCLC = test system: A549 NSCLC
HCC-2998 colon = test system: HCC-2998 colon

Work on Cc1cc2cc3c(=O)[nH]c(=O)[nH]c3nc2cc1C yielded a TGI (OVCAR-5 ovarian) of over 100 µM, a TGI (BT-549 breast) of over 100 µM and a TGI (U251 CNS) of over 100 µM. For the same compound, the TGI (HOP-92 NSCLC) was over 100 µM, the TGI (RPMI-8226 leukemia) was over 100 µM and the TGI (KM12 colon) was over 100 µM. It also gave a TGI (IGROV1 ovarian) of over 100 µM, a TGI (OVCAR-8 ovarian) of over 100 µM and a TGI (A549 NSCLC) of over 100 µM.
In the case of Cc1ccc(S(=O)OCc2c(C)c(C)c(COS(=O)c3ccc(C)cc3)c(C)c2C)cc1 (configuration not stated), the TGI (OVCAR-5 ovarian) is reported as over 100 µM, the TGI (HCC-2998 colon) is reported as over 100 µM and the TGI (U251 CNS) is reported as over 100 µM. It also gave a TGI (HOP-92 NSCLC) of over 100 µM, a TGI (RPMI-8226 leukemia) of over 100 µM and a TGI (KM12 colon) of over 100 µM. For the same compound, the TGI (IGROV1 ovarian) was over 100 µM, the TGI (OVCAR-8 ovarian) was over 100 µM and the TGI (A549 NSCLC) was over 100 µM.
For Cc1cc(N(CCCNc2ccnc3cc(Cl)ccc23)Cc2ccc3c(c2)OCO3)nc(N2CCOCC2)n1, the GI50 (OVCAR-5 ovarian) was 0.29 µM, the TGI (OVCAR-5 ovarian) was 22.3 µM and the GI50 (BT-549 breast) was 0.334 µM. It also gave a TGI (BT-549 breast) of 23.5 µM, a GI50 (HCC-2998 colon) of 0.329 µM and a TGI (HCC-2998 colon) of 13.1 µM. For the same compound, the GI50 (U251 CNS) was 0.323 µM, the TGI (U251 CNS) was 3.18 µM and the GI50 (RPMI-8226 leukemia) was 0.33 µM. The TGI (RPMI-8226 leukemia) was 2.15 µM, the GI50 (KM12 colon) was 0.34 µM and the TGI (KM12 colon) was 25.7 µM. For the same compound, the GI50 (IGROV1 ovarian) was 0.338 µM, the TGI (IGROV1 ovarian) was 3.47 µM and the GI50 (OVCAR-8 ovarian) was 0.312 µM. For the same compound, the TGI (OVCAR-8 ovarian) was 25.6 µM.
Compound COc1cccc2c1C(=O)c1c(O)c3c(c(O)c1C2=O)C[C@@](O)(/C(C)=N/NC(=O)c1ccc(Cl)cc1)C[C@@H]3OC1CC(N)C(O)C(C)O1 (some centres not stated) has a GI50 (OVCAR-5 ovarian) of 0.379 µM, a TGI (OVCAR-5 ovarian) of 3.81 µM and a GI50 (HOP-92 NSCLC) of 0.192 µM. The TGI (HOP-92 NSCLC) was 0.751 µM, the GI50 (RPMI-8226 leukemia) was 0.216 µM and the TGI (RPMI-8226 leukemia) was 1.47 µM. For the same compound, the GI50 (KM12 colon) was 0.326 µM, the TGI (KM12 colon) was 2.44 µM and the GI50 (IGROV1 ovarian) was 0.138 µM. The TGI (IGROV1 ovarian) was 2.74 µM, the GI50 (OVCAR-8 ovarian) was 0.268 µM and the TGI (OVCAR-8 ovarian) was 3.02 µM. The GI50 (A549 NSCLC) was 0.124 µM and the TGI (A549 NSCLC) was 1.85 µM.
CC(C)=CCc1cc2c(cc1O)OC[C@H]1c3cc4c(cc3O[C@@H]21)OCO4 gave a TGI (OVCAR-5 ovarian) of over 100 µM, a TGI (BT-549 breast) of 95.3 µM and a TGI (U251 CNS) of over 100 µM. The TGI (HOP-92 NSCLC) was over 100 µM, the TGI (KM12 colon) was over 100 µM and the TGI (IGROV1 ovarian) was over 100 µM. For the same compound, the TGI (OVCAR-8 ovarian) was over 100 µM and the TGI (A549 NSCLC) was over 100 µM.
With Nc1ccn(C2OC(CO)C(O)C2O)c(=O)n1 (configuration not stated) the TGI (OVCAR-5 ovarian) was > 100 µM and 392 µM and > 500 µM, the GI50 (BT-549 breast) was 7.08 µM and the TGI (BT-549 breast) was over 500 µM. For the same compound, the GI50 (HCC-2998 colon) was 1.69 µM, the TGI (HCC-2998 colon) was > 100 µM and 429 µM and > 500 µM and the GI50 (U251 CNS) was 0.635 µM. For the same compound, the TGI (U251 CNS) was over 500 µM, the GI50 (RPMI-8226 leukemia) was 3.75 µM and the TGI (RPMI-8226 leukemia) was over 500 µM. The TGI (KM12 colon) was over 500 µM, the GI50 (IGROV1 ovarian) was 37.9 µM and the TGI (IGROV1 ovarian) was over 500 µM. It also gave a GI50 (OVCAR-8 ovarian) of 0.392 µM, a TGI (OVCAR-8 ovarian) of over 500 µM and a GI50 (A549 NSCLC) of 0.422 µM.
With COc1cc(/C=C\c2cc(OC)c(OC)c(OC)c2)cc(N/C=C\C(=O)c2cc(OC)c(OC)c(OC)c2)c1OC the GI50 (OVCAR-5 ovarian) was 3.64 µM, the TGI (OVCAR-5 ovarian) was over 100 µM and the GI50 (HCC-2998 colon) was 8.92 µM. It also gave a TGI (HCC-2998 colon) of over 100 µM, a GI50 (U251 CNS) of 3.84 µM and a TGI (U251 CNS) of over 100 µM. It also gave a GI50 (HOP-92 NSCLC) of 1.14 µM, a TGI (HOP-92 NSCLC) of 6.56 µM and a GI50 (RPMI-8226 leukemia) of 3.04 µM. The TGI (RPMI-8226 leukemia) was over 100 µM, the GI50 (KM12 colon) was 3.21 µM and the TGI (KM12 colon) was over 100 µM. For the same compound, the GI50 (IGROV1 ovarian) was 6.06 µM, the TGI (IGROV1 ovarian) was over 100 µM and the GI50 (OVCAR-8 ovarian) was 4.7 µM. For the same compound, the TGI (OVCAR-8 ovarian) was over 100 µM, the GI50 (A549 NSCLC) was 5.14 µM and the TGI (A549 NSCLC) was over 100 µM.
Work on COc1ccc(-c2cc(/C=C/C(=O)c3ccc(OC)c(OC)c3)[nH]n2)cc1 yielded a GI50 (OVCAR-5 ovarian) of 1.65 µM, a TGI (OVCAR-5 ovarian) of 4.09 µM and a GI50 (BT-549 breast) of 1.68 µM. It also gave a TGI (BT-549 breast) of 3.53 µM, a GI50 (HCC-2998 colon) of 2.02 µM and a TGI (HCC-2998 colon) of 3.97 µM. It also gave a GI50 (U251 CNS) of 1.11 µM, a TGI (U251 CNS) of 2.34 µM and a GI50 (RPMI-8226 leukemia) of 0.32 µM. The TGI (RPMI-8226 leukemia) was 1.33 µM, the GI50 (KM12 colon) was 1.38 µM and the TGI (KM12 colon) was 3.11 µM. For the same compound, the GI50 (IGROV1 ovarian) was 1.57 µM, the TGI (IGROV1 ovarian) was 3.65 µM and the GI50 (OVCAR-8 ovarian) was 2.16 µM. The TGI (OVCAR-8 ovarian) was 10.4 µM, the GI50 (A549 NSCLC) was 1.88 µM and the TGI (A549 NSCLC) was 5.95 µM.
